Data published in patent US7521458B2, “Spiropiperidylrifamycins for the treatment of mycobacterial infections” (priority 2004, dated 2009).
Like-named read-outs stand apart in the source and are kept apart here.

Legend:
Type in all cases: cell-based
[1] = tested on: Mycobacterium tuberculosis 4 strains assayed; conditions: for % Sensitivity: 4 strains; for n° (sensitive strains): of 4 strains
[2] = tested on: Mycobacterium tuberculosis multiresistant 17 strains assayed; conditions: for % Sensitivity: 17 strains; for n° (sensitive strains): of 17 strains
[3] = tested on: multiresistant Mycobacterium tuberculosis; experiment: microbe, parasite or virus in culture; conditions: for MIC: Mycobacterium tuberculosis; for sensitivity (of strains): concentration of about 1 μg/ml, all strains of Example 34; for antimycobacterial activity compared with rifampicin and rifabutin: in vitro, in words
[4] = concentration analized 0.1 μg/ml
[5] = concentration analized 0.5 μg/ml

CO[C@H]1/C=C/O[C@@]2(C)Oc3c(C)c(O)c4c(O)c(c(/C=N/N5CCN(C)CC5)c(O)c4c3C2=O)NC(=O)/C(C)=C\C=C\[C@H](C)[C@H](O)[C@@H](C)[C@@H](O)[C@@H](C)[C@H](OC(C)=O)[C@@H]1C [RI, rifampicin]
Sensitivity of strains (S/R) ([1]; concentration analized 1 μg/ml): R (R means resistent)
Sensitivity of strains (S/R) ([2]; concentration analized 1 μg/ml): R (R means resistent)
MIC [3]: > 256 µg/mL

NNC(=O)c1ccncc1 [IZ, isoniazid]
Sensitivity of strains (S/R) ([2]; concentration analized 0.2 μg/ml): R (R means resistent)
MIC [3]: > 256 µg/mL

4-deoxo-3,4-[(2R)-2-spiro[2,6-bis(4-fluorophenyl)-4-piperidil]-2,5-dihydro-1H-imidazo]rifamycin S [RFA 5M]
% Sensitivity [1, 4]: 25%
n° (sensitive strains) [1, 4]: 1
% Sensitivity [1, 5]: 50%
n° (sensitive strains) [1, 5]: 2
% Sensitivity ([1]; concentration analized 1 μg/ml): 100%
n° (sensitive strains) ([1]; concentration analized 1 μg/ml): 4
% Sensitivity [2, 4]: 17%
n° (sensitive strains) [2, 4]: 3
% Sensitivity [2, 5]: 82%
n° (sensitive strains) [2, 5]: 14
% Sensitivity ([2]; concentration analized 1 μg/ml): 100%
n° (sensitive strains) ([2]; concentration analized 1 μg/ml): 17
sensitivity (of strains) [3]: about 100%
antimycobacterial activity compared with rifampicin and rifabutin [3]: much superior to rifampicin and to rifabutin

CO[C@H]1/C=C/O[C@@]2(C)Oc3c(C)c(O)c4c(c3C2=O)C2=NC3(CCN(CC(C)C)CC3)NC2=C(NC(=O)/C(C)=C\C=C\[C@H](C)[C@H](O)[C@@H](C)[C@@H](O)[C@@H](C)[C@H](OC(C)=O)[C@@H]1C)C4=O [RFB, rifabutin]
sensitivity (of strains) [3]: about 14.3%

4-deoxo-3,4-[(2R)-2-spiro(2,6-diphenyl-4-piperidyl)-2,5-dihydro-1H-imidazo]rifamycin S [RFA 3M]
% Sensitivity [1, 4]: 25%
n° (sensitive strains) [1, 4]: 1
% Sensitivity [1, 5]: 50%
n° (sensitive strains) [1, 5]: 2
% Sensitivity ([1]; concentration analized 1 μg/ml): 100%
n° (sensitive strains) ([1]; concentration analized 1 μg/ml): 4
% Sensitivity [2, 4]: 23%
n° (sensitive strains) [2, 4]: 4
% Sensitivity [2, 5]: 75%
n° (sensitive strains) [2, 5]: 13
% Sensitivity ([2]; concentration analized 1 μg/ml): 94%
n° (sensitive strains) ([2]; concentration analized 1 μg/ml): 16
sensitivity (of strains) [3]: about 95.2%
antimycobacterial activity compared with rifampicin and rifabutin [3]: much superior to rifampicin and to rifabutin
